Measurements reported in EP0007205A1, “Optically active phenethanolamines, their formulations, use and preparation” (ELI LILLY AND COMPANY, priority 1978, dated 1980).
Where two headings read alike, the source gives them in different places.

Experiments:
dogs [1] = experiment: Inotropic potency in anesthetized dogs and conscious dogs with implanted cardiovascular transducers; format: in vivo; settings: for ED50: read-out: Cardiac Contractile Potency mcg/kg ED50; for Blood Pressure Change mm/hg at ED50 / Heart rate Change beats/min. at ED50: at the contractile ED50
Protocol: The heart rate, arterial pressure, cardiac output, and the derivative of left ventricular pressure (which is the index of cardiac contractility), were measured.

dogs [2] = experiment: Physical conditioning of dogs (treadmill exercise, chronic oral dosing); format: in vivo
Source text: In a typical experiment, a group of ten dogs were implanted with miniature pressure transducers in their left ventricle so that measurements of heart rate, systolic pressure and the derivative of left ventricular pressure (the index of cardiac contractility) could be made. The dogs were trained to walk on a treadmill. Five of the dogs were randomly selected to receive a compound of this invention, for instance R,R-N-[2-(4-hydroxyphenyl)-2-hydroxyethyl]-1-methyl-3-(4-hydroxyphenyl)propylaminium chloride. The test animals received saline filled capsules during the first week of the test. During the second and third weeks, the dogs received the test compound orally at a dose of 10 mcg./kg. twice each day. The dosage was increased to 40 mcg./kg. twice each day for the fourth week, and increased to 60 mcg./kg. twice each day through weeks five to eleven. The other five dogs received saline filled capsules throughout the study. Once each week, the animals' response to exercise on . the treadmill was evaluated. Resting data were obtained by permitting the dogs to lie on the treadmill before turning it on. The treadmill then was run at a speed of 3.5 kilometers/hr., with the dogs walking at this speed with no elevation for 5 min., and then for 5 min. at a 20% incline. During the eleventh week of such test, the dogs were made to walk on a 40% incline, thus providing sufficient stress to increase plasma lactic acid and catecholamines. Blood samples prior to each exercise and within two minutes of completing the exercise were taken from the jugular vein.
After several weeks, the dogs were anesthetized and measurements of ventricular function and skeletal muscle blood flow and enzymes were made.

[3] = Canis lupus familiaris, dogs, dose giving a 50% increase in contractile force (derivative of left ventricular pressure)

Structure (SMILES) | Blood Pressure Change mm/hg at ED50 (dogs [1]; dogs) | Heart rate Change beats/min. at ED50 (dogs [1]; dogs) | ED50 (dogs [1]; [3]) | also measured
C[C@@H](CCc1ccc(O)cc1)NC[C@H](O)c1ccc(O)cc1 [R,S-N-[2-(4-hydroxyphenyl)-2-hydroxyethyl]-1-methyl-3-(4-hydroxyphenyl)propylamine, reference compound] | -2 mm/hg | 15 beats/min. | – | ED50 (dogs [1]; Canis lupus familiaris): 11 µg/kg
C[C@H](CCc1ccc(O)cc1)NC[C@H](O)c1ccc(O)cc1.Cl [R,R-N-[2-(4-Hydroxyphenyl)-2-hydroxyethyl]-1-methyl-3-(4-hydroxyphenyl)propylaminium chloride] | – | – | – | Skeletal Muscle Blood Flow (ml./min./100 g.) (dogs [2]; conditioned dogs, anesthetized after several weeks, p<0.01): 2.5 ml./min./100 g.; Heart Rate (beats/min.) at rest (dogs [2]; conditioned dogs, at rest, p<0.01): 55 beats/min.; Heart Rate (beats/min.) at 20° walk (dogs [2]; conditioned dogs, treadmill walk at 20°, p<0.01): 150 beats/min.; Blood Lactic Acid (mg.%) at rest (dogs [2]; dogs, oral 10 then 40 then 60 mcg./kg. twice each day over eleven weeks, at rest, p<0.01 printed for lactic acid): 5.2 mg.%; Plasma Norepinephrine (picograms/ml.) at rest (dogs [2]; dogs, oral 10 then 40 then 60 mcg./kg. twice each day over eleven weeks, at rest, p<0.05 printed for norepinephrine): 235 picograms/ml.; Blood Lactic Acid (mg.%) during exercise (dogs [2]; dogs, oral 10 then 40 then 60 mcg./kg. twice each day over eleven weeks, during treadmill exercise, p<0.01 printed for lactic acid): 6.3 mg.%; Plasma Norepinephrine (picograms/ml.) during exercise (dogs [2]; dogs, oral 10 then 40 then 60 mcg./kg. twice each day over eleven weeks, during treadmill exercise, p<0.05 printed for norepinephrine): 200 picograms/ml.; Succinic Dehydrogenase Activity (µM/mgP/min.) (dogs [2]; skeletal muscle of conditioned dogs, p<0.01): 3.3 µM/mgP/min.
C[C@H](CCc1ccc(C(N)=O)cc1)NC[C@H](O)c1ccccc1 [R,R-N-(2-Phenyl-2-hydroxyethyl)-l-methyl-3-(4-aminocarbonylphenyl)propylamine] | +3 mm/hg | 15 beats/min. | 7 µg/kg | –
C[C@@H](CCc1ccc(C(N)=O)cc1)NC[C@H](O)c1ccccc1 [R,S-N-(2-phenyl-2-hydroxyethyl)-1-methyl-3-(4-aminocarbonylphenyl)propylamine, reference compound] | – | – | – | ED (max) (dogs [1]; Canis lupus familiaris, dogs, EDmax: a 50% increase in contractile force could not be achieved, dose giving the maximal increase, read-out: Cardiac Contractile Potency mcg/kg (EDmax)): 1980 µg/kg; Blood Pressure Change mm/hg (EDmax) (dogs [1]; dogs, at EDmax dose): -30 (EDmax) mm/hg; Heart rate Change beats/min. (EDmax) (dogs [1]; dogs, at EDmax dose): 24 (EDmax) beats/min.
C[C@@H](CCc1ccc(O)cc1)NC[C@H](O)c1ccccc1 [R,S-N-[2-phenyl-2-hydroxyethyl)-1-methyl-3-(4-hydroxyphenyl)propylamine, reference compound] | -20 mm/hg | 18 beats/min. | 350 µg/kg | –
C[C@H](CCc1ccc(O)cc1)NC[C@H](O)c1ccc(O)cc1 [R,R-N-[2-(4-hydroxyphenyl)-2-hydroxyethyl]-1-methyl-3-(4-hydroxyphenyl)propylamine] | -5 mm/hg | 15 beats/min. | – | ED50 (dogs [1]; Canis lupus familiaris): 0.32 µg/kg
C[C@H](CCc1ccc(O)cc1)NC[C@H](O)c1ccccc1 [R,R-N-(2-phenyl-2-hydroxyethyl)-1-methyl-3-(4-hydroxyphenyl)propylamine] | -13 mm/hg | 15 beats/min. | 6 µg/kg | –
